Measurements published in patent publication US8673910B2, “Proteasome inhibitors for selectively inducing apoptosis in cancer cells” (H. Lee Moffitt Cancer Center and Research Institute, priority 2008, dated 2014).
“And” between values parts separate entries of the source, which are not always exact repeats. Identical values can stand only once.

Target: T1, CT-L activity of the proteasome in MCF-7 human breast cancer cells (Homo sapiens, UniProt P20618+P28074)
T1 construct: endogenous in cells; host or cells: MCF-7
Experiment: Proteolytic activity in cell lysates of treated intact MCF-7 cells
Format: cell-based
Settings: intact cells treated 16 h, CT-L measured in cell lysates; two determinations where two values
Experimental: Human MCF-7 breast cancer cells were cultured in DMEM medium containing 10% fetal calf serum (FCS) and 100 units/ml of penicillin and 100 μg/ml of streptomycin. Cells were maintained at 37° C. in a humidified incubator in an atmosphere of 5% CO2. Cells were treated with different concentrations of PI-083, YG1-080, YG1-075, HL2-090-2, HL2-090-4, HL2-090-6, and HL2-090-9 or vehicle control (DMSO) for 16 h.
Intact cells were treated with compounds and lysates prepared as described above. Cell lysates (5 μg) was incubated with 20 μM Suc-Leu-Leu-Val-Tyr-AMC for the CT-L activity for 1 h at 37° C. in 100 μl of assay buffer (50 mM Tris-HCl, pH 7.6). After incubation, production of hydrolyzed 7-amido-4-methyl-coumarin (AMC) groups was measured using a WALLAC Victor^2 1420 Multilabel Counter with an excitation filter of 355 nm and an emission filter of 460 nm (Perkin Elmer Life Sciences, Turku, Finland).

`O=C1C(Cl)=C(Nc2ccc(S(=O)(=O)Nc3ccccn3)cc2)C(=O)c2ccccc21` [PI-083, 4-(3-chloro-1,4-dioxo-1,4-dihydronaphthalen-2-ylamino)-N-(pyridin-2-yl)benzenesulfonamide] was tested. Which IC50 did it give?
Its IC50 is 6.2 µM and 5.6 µM.
